Here are results for 18 compounds from PubChem BioAssay AID298 (DTP/NCI, 2004).

“And” between values parts separate entries of the source, which are not always exact repeats. Equal entries are not always repeated. Inconclusive results are not listed.

The assay deals with MX-1 breast xenograft, intrarenal, nude mice, tumor weight. The experiment in a line: NCI In Vivo Anticancer Drug Screen. Data for tumor model Human Mammary Carcinoma MX-1 Xenograft (intrarenal inoculation) in NU/NU BALB/C (nude) mice. Particulars: endpoint: mean tumor weight change, higher = larger tumour. The method in brief:
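Efficacy in vivo: tumor measurement or survival of treated animals divided by that of vehicle-dosed controls.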

Setting [1] is: dose: 150.0 mg/kg/injection, schedule: Q04DX003 (ip), vehicle: saline with Tween-80.

Take `CS(=O)(=O)CS(=O)(=O)OCCCl`: the T/C was 61 % of control (dose: 21.6 mg/kg/injection, schedule: Q04DX003 (ip), vehicle: other); 28 % of control (dose: 36.0 mg/kg/injection, schedule: Q04DX003 (ip), vehicle: other); 106 % of control (dose: 37.5 mg/kg/injection, schedule: Q04DX003 (sc), vehicle: suspension in saline); 25 % of control (dose: 60.0 mg/kg/injection, schedule: Q04DX003 (ip), vehicle: other); 106 % of control (dose: 75.0 mg/kg/injection, schedule: Q04DX003 (sc), vehicle: suspension in saline); 100 % of control (dose: 99.6 mg/kg/injection, schedule: Q04DX003 (ip), vehicle: dextrose). The T/C is 19 % of control (dose: 99.6 mg/kg/injection, schedule: Q04DX003 (ip), vehicle: other); 43 % of control (dose: 100.0 mg/kg/injection, schedule: Q04DX003 (ip), vehicle: other); 54 % of control (dose: 150.0 mg/kg/injection, schedule: Q04DX003 (sc), vehicle: suspension in saline); 37 % of control (dose: 166.0 mg/kg/injection, schedule: Q04DX003 (ip), vehicle: dextrose); 13 % of control (dose: 166.0 mg/kg/injection, schedule: Q04DX003 (ip), vehicle: other); 20 % of control (dose: 166.7 mg/kg/injection, schedule: Q04DX003 (ip), vehicle: other). In addition, the T/C was 19 % of control (dose: 276.67 mg/kg/injection, schedule: Q04DX003 (ip), vehicle: dextrose) and 10 % of control (dose: 276.67 mg/kg/injection, schedule: Q04DX003 (ip), vehicle: other).

With `O=C(O)c1ccc(C(=O)O)c(C(=O)O)c1.[NH-]C1CCCCC1[NH-].[Pt+2]`, the T/C was 74 % of control (dose: 3.12 mg/kg/injection, schedule: Q01DX010 (sc), vehicle: sodium bicarbonate); 40 % of control (dose: 6.25 mg/kg/injection, schedule: Q01DX010 (sc), vehicle: sodium bicarbonate); 6 % of control (dose: 12.5 mg/kg/injection, schedule: Q01DX010 (sc), vehicle: sodium bicarbonate).

Take `Nc1ccn(C2OC(CO)C(O)C2O)c(=O)n1` (stereo not drawn): the T/C is 57 % of control (dose: 500.0 mg/kg/injection, schedule: Q04DX003 (sc), vehicle: saline) and 68 % of control (dose: 1000.0 mg/kg/injection, schedule: Q04DX003 (sc), vehicle: saline).

As to `O=C1NC(=O)NC(C(=O)O)N1`, the T/C was 96 % of control (dose: 200.0 mg/kg/injection, schedule: Q04DX003 (sc), vehicle: Klucel (hydroxypropylcellulose) (HPC)) and 108 % of control (dose: 400.0 mg/kg/injection, schedule: Q04DX003 (sc), vehicle: Klucel (hydroxypropylcellulose) (HPC)).

As for `COc1cc2cc3c(c(O)c2c(O)c1/C=C/C(C)C)C(=O)CC(C)(OC(C)=O)C3` (stereo not drawn), the T/C is, setting by setting: (dose: 5.0 mg/kg/injection, schedule: Q04DX003 (ip), vehicle: Klucel (hydroxypropylcellulose) (HPC)) 85 % of control; (dose: 10.0 mg/kg/injection, schedule: Q04DX003 (ip), vehicle: Klucel (hydroxypropylcellulose) (HPC)) 66 % of control; (dose: 20.0 mg/kg/injection, schedule: Q04DX003 (ip), vehicle: Klucel (hydroxypropylcellulose) (HPC)) 63 % of control.

With `C1CCC2C[N-]CCC2C1.C1CCC2C[N-]CCC2C1.C1CCC2C[N-]CCC2C1.C1CCC2C[N-]CCC2C1.[Cl][Rh][Cl]` (stereo not drawn), the T/C by setting is: (dose: 72.0 mg/kg/injection, schedule: Q04DX003 (sc), vehicle: saline with Tween-80) 112 % of control; (dose: 144.0 mg/kg/injection, schedule: Q04DX003 (sc), vehicle: saline with Tween-80) 124 % of control; (dose: 576.0 mg/kg/injection, schedule: Q04DX003 (sc), vehicle: saline with Tween-80) 67 % of control.

In the case of `NCc1cc(O)c(O)c(O)c1`, the T/C is 99 % of control (dose: 150.0 mg/kg/injection, schedule: Q04DX003 (ip), vehicle: water); 120 % of control (dose: 300.0 mg/kg/injection, schedule: Q04DX003 (ip), vehicle: water); 89 % of control (dose: 600.0 mg/kg/injection, schedule: Q04DX003 (ip), vehicle: water); 91 % of control (dose: 1200.0 mg/kg/injection, schedule: Q04DX003 (ip), vehicle: water).

With `Cc1cccc(OCC(O)CN2CC2)c1` (stereo not drawn), the T/C by setting is: (dose: 50.0 mg/kg/injection, schedule: Q04DX003 (ip), vehicle: saline with Tween-80) 63 % of control; (dose: 100.0 mg/kg/injection, schedule: Q04DX003 (ip), vehicle: saline with Tween-80) 62 % of control.

Regarding `COC1C(OC(=O)/C=C/C=C/C=C/C=C/C(=O)O)CCC2(CO2)C1C1(C)OC1CC=C(C)C` (stereo not drawn), the T/C runs as follows: (dose: 150.0 mg/kg/injection, schedule: Q04DX003 (sc), vehicle: saline) 102 % of control; (dose: 300.0 mg/kg/injection, schedule: Q04DX003 (sc), vehicle: saline) 96 % of control; (dose: 600.0 mg/kg/injection, schedule: Q04DX003 (sc), vehicle: saline) 62 % of control.

On to `COC(=O)C12OCC34C(CC5C(C)C6=CC(=O)OC6=CC5(C)C3C(O)C1O)OC(=O)C(O)C24` (stereo not drawn), for which the T/C is 75 % of control (dose: 0.5 mg/kg/injection, schedule: Q04DX003 (ip), vehicle: Klucel (hydroxypropylcellulose) (HPC)); 77 % of control (dose: 1.0 mg/kg/injection, schedule: Q04DX003 (ip), vehicle: Klucel (hydroxypropylcellulose) (HPC)); 69 % of control (dose: 2.0 mg/kg/injection, schedule: Q04DX003 (ip), vehicle: Klucel (hydroxypropylcellulose) (HPC)); 45 % of control (dose: 4.0 mg/kg/injection, schedule: Q04DX003 (ip), vehicle: Klucel (hydroxypropylcellulose) (HPC)).

In the case of `N#Cc1c(-c2ccccc2)c(-c2ccccc2)nn(CC(=O)O)c1=O`, the T/C is, setting by setting: (dose: 100.0 mg/kg/injection, schedule: Q04DX003 (ip), vehicle: distilled water + Tween-80) 120 % of control; (dose: 200.0 mg/kg/injection, schedule: Q04DX003 (ip), vehicle: distilled water + Tween-80) 85 % of control.

Take `CCN(CC)CCn1[nH]c2c3ccc(=O)cc3sc3c(NCCN)ccc1c32`: the T/C was 26 % of control and 40 % of control (dose: 3.12 mg/kg/injection, schedule: Q04DX003 (ip), vehicle: water); 35 % of control and 38 % of control and 42 % of control (dose: 6.25 mg/kg/injection, schedule: Q04DX003 (ip), vehicle: water); 50 % of control (dose: 25.0 mg/kg/injection, schedule: Q04DX003 (ip), vehicle: water).

Consider `CC(C)(C)c1ccc(C(=O)N2CCOC23CCCCC3)cc1`, for which the T/C is 69 % of control and 87 % of control under setting [1]; 96 % of control and 112 % of control (dose: 300.0 mg/kg/injection, schedule: Q04DX003 (ip), vehicle: saline with Tween-80); 80 % of control and 88 % of control (dose: 600.0 mg/kg/injection, schedule: Q04DX003 (ip), vehicle: saline with Tween-80); 95 % of control and 106 % of control (dose: 1200.0 mg/kg/injection, schedule: Q04DX003 (ip), vehicle: saline with Tween-80).

As for `NS(=O)(=O)OCCCCCCCOS(N)(=O)=O`, the T/C under setting [1] was -40 % of control.

Take `NC(Cc1ccc(N(CCCl)CCCl)cc1)C(=O)O` (stereo not drawn): the T/C reads like this: (dose: 10.0 mg/kg/injection, schedule: Q04DX003 (sc), vehicle: Klucel (hydroxypropylcellulose) (HPC)) -85 % of control and -98 % of control; (dose: 20.0 mg/kg/injection, schedule: Q04DX003 (sc), vehicle: Klucel (hydroxypropylcellulose) (HPC)) -90 % of control.

Turning to `CC1=CC(=Nc2ccc(N(CCCl)CCCl)cc2)C=C(C)C1=O`, the T/C (dose: 300.0 mg/kg/injection, schedule: Q04DX003 (sc), vehicle: Klucel (hydroxypropylcellulose) (HPC)) is -11 % of control; the T/C (dose: 600.0 mg/kg/injection, schedule: Q04DX003 (sc), vehicle: Klucel (hydroxypropylcellulose) (HPC)) is -12 % of control; the T/C (dose: 1200.0 mg/kg/injection, schedule: Q04DX003 (sc), vehicle: Klucel (hydroxypropylcellulose) (HPC)) was 1 % of control; the T/C (dose: 2400.0 mg/kg/injection, schedule: Q04DX003 (sc), vehicle: Klucel (hydroxypropylcellulose) (HPC)) is -20 % of control.

For `CC(=O)C1=C(O)C2(O)C(=O)c3c(c(C)c4ccc(C)c(O)c4c3O)CC2C(N)C1=O` (stereo not drawn), the T/C was 89 % of control (dose: 100.0 mg/kg/injection, schedule: Q04DX003 (sc), vehicle: saline); 107 % of control (dose: 200.0 mg/kg/injection, schedule: Q04DX003 (sc), vehicle: saline); 98 % of control (dose: 400.0 mg/kg/injection, schedule: Q04DX003 (sc), vehicle: saline); 84 % of control (dose: 800.0 mg/kg/injection, schedule: Q04DX003 (sc), vehicle: saline).

For `NC(=S)N/N=C/c1ccc(O)cn1`, the T/C was 88 % of control (dose: 100.0 mg/kg/injection, schedule: Q04DX003 (sc), vehicle: saline with Tween-80); 101 % of control (dose: 200.0 mg/kg/injection, schedule: Q04DX003 (sc), vehicle: saline with Tween-80); 92 % of control (dose: 400.0 mg/kg/injection, schedule: Q04DX003 (sc), vehicle: saline with Tween-80).
